The results in this text go back to patent publication US12285509B2, “Glyceryl and glycol acid compounds” (MARY KAY INC., priority 2006, dated 2025).

The series in a line: UV absorption (UV/Vis spectrometer, standard USP 197U testing procedures). It is filed as physicochemical. The source says: UV absorption of glyceryl/acid or glycol/acid compounds and compositions containing the same can be determined by UV absorption assays that are generally known to those of ordinary skill in the art.

`O=C(OCC(O)CO)c1ccccc1O` (centres unmarked) [Glyceryl Mono-Salicylate]: the “Molar Absorptivity (λ max 238 nm)” value (λ max 238 nm) turned out to be 12065.7. Besides, the “Molar Absorptivity (λ max 307 nm)” value (λ max 307 nm) is reported as 6126.4.
